Data as given in patent publication US20240374558A1, “PREPARATION OF PHENE[…] […] STEREOISOMERS THEREOF AND PRECURSORS THEREOF” (priority 2022, published 2024).
“Also recorded” adds a separate entry of the source. Structures can show the parent of a compound that is named as a salt.

Assays:
[1] = target: T1, Nav1.5 (Homo sapiens, UniProt Q14524); assay: hNav1.5 Sodium Channel Assay (peak), Qube APC; assay type: cell-based; settings: Antagonist mode; HEK-Nav1.5 (Peak); test compound
T1 construct: host or cells: HEK-293
Procedure: (§1) Where presented, IC50 values were determined by a non-linear, least squares regression analysis.
(§2) Recombinant HEK-293 cells stably transfected with human NavL.5 cDNA, recombinant HEK293 cell line expressing the human Cavl.2 (L-type voltage gated calcium channel, hCavl.2 alC/02a/a281, and recombinant CHO-K1 cells stably transfected with human hERG cDNA were used separately in each of these assays.
(§3) Ion Channels tested were Eurofins Panel Part Number: CPROFullQB2DR Voltage-Gated Sodium: HEK-Nav1.5 (Peak), HEK-Nav1.5 (Late, Antagonist) Voltage-Gated Potassium: HEK-Kv4.3/KChIP2, CHO-hERG, CHO-KCNQ1/minK Voltage-Gated Calcium: HEK-Cav1.2 Inward-Rectifying Voltage-Gated Potassium: HEK-Kir2.1.
(§4) Methods employed in this study have been developed and validated with reliability and reproducibility by Eurofins. Assays were performed under conditions below. […] Peak current is measured during the step to −15 mV. […] Onset and steady state block of hKv4.3 current is measured using a pulse pattern from −80 mV to 40 mV amplitude for a 110 ms duration, and finally a 100 ms ramp (1.2 V/s) to −80 mV. This paradigm is delivered once every 5s to monitor the current amplitude. […] Cavl.2 currents are evoked by a 50 ms pulse to −100 mV followed by a 200 ms pulse to +20 mV before returning to the holding potential of −90 mV. This paradigm is delivered three times every 60s to monitor the current amplitude. [0220] hNav1.5 Late Current Sodium Channel Assay—Qube APC Onset and steady state block of Late Nay1.5 current is measured using a pulse pattern, repeated every 5 sec, consisting of a hyperpolarizing pulse to −120 mV for a 200 ms duration, depolarization to −15 mV amplitude for a 40 ms duration, followed by step to 40 mV for 200 ms and finally a 100 ms ramp (1.2 V/s) to a holding potential of −80 mV. Late current is measured as charge current elicited during the ramp with 50 nM ATXII.

[2] = target: T2, Cav1.2 (Homo sapiens, UniProt Q13936); assay: hCav1.2 (L-type) Calcium Channel Assay, Qube APC; assay type: cell-based; settings: Antagonist mode; HEK-Cav1.2; test compound
T2 construct: host or cells: HEK293
Procedure: as §1, §2, §3, §4

[3] = target: T3, hERG (Homo sapiens, UniProt Q12809); assay: hERG Potassium Channel Assay, Qube APC; assay type: cell-based; settings: Antagonist mode; CHO-hERG; test compound
T3 construct: host or cells: CHO-K1
Procedure: as §1, §2, §3
hERG Potassium Channel Assay—Qube APC After whole cell configuration is achieved, the cells are held at −80 mV. Cells are held at this voltage for 50 ms to measure the leak current, which is subtracted from the tail current on-line. The cells are depolarized to +40 mV for 500 ms and then to −80 mV over a 100 ms ramp to elicit the hERG tail current. This paradigm is delivered once every 8s to monitor the current amplitude.

[4] = target: T4, KCNQ1/mink (Homo sapiens, UniProt P51787); assay: hKCNQ1/hminK Potassium Channel Assay, Qube APC; assay type: cell-based; settings: Antagonist mode; CHO-KCNQ1/minK; test compound
T4 construct: host or cells: CHO
Procedure: Electrophysiological assays were conducted to profile three compounds ((R)-methylone, (S)-methylone, or racemic methylone) for activities on the ion channel targets specified below using the Qube electrophysiological platform. Where presented, IC50 values were determined by a non-linear, least squares regression analysis. Reference standards were run as an integral part of each assay to ensure the validity of the results obtained.
as §3
hKCNQ1/hminK Potassium Channel Assay—Qube APC After whole cell configuration is achieved, the cells are held at −80 mV. KCNQ1/minK currents are evoked by a 1000 ms pulse from −80 mV to 60 mV followed by a ramp from 60 mV to −80 mV over 115 ms with the outward peak currents measured upon depolarization of the cell membrane. This paradigm is delivered once every 15s to monitor the current amplitude. [0223] hKir2.1 Potassium Channel Assay—Qube APC After whole cell configuration is achieved, the cells are held at −30 mV. Kir2.1 currents are evoked by a single 500 ms pulse to -120 mV before returning to the holding potential of −30 mV. This paradigm is delivered once every 20s to monitor the current amplitude.

[5] = tested on: rat forced swim test (FST); assay: Rat forced swim test (FST); assay type: in vivo; settings: single dose 10 mg/kg, IP, 30 min before testing
Procedure: The forced swim test (FST) is a classic model to assess the antidepressant-like activity of compounds that has been in use for over 40 years (Porsolt et al. (1977) Nature 266:730-732; Detke et al. (1995) Psychopharmacology 121:66-72). […] A single dose of 5 mg/kg methylone reduces immobility by approximately 50% compared to vehicle-treated controls, whereas a 15 mg/kg dose reduces immobility by nearly 100%. Accompanying changes in climbing and/or swimming behavior reflect noradrenergic and serotonergic activities of methylone, respectively.
All FST studies are performed and scored by an experimenter blind to treatment group and according to standard protocols. Briefly, rats are placed in a circular plexiglass container filled with water. Water temperature is maintained at 22-25° C. and changed for every animal. Day 1 (Training) consists of a 15 min acclimation trial, and Day 2 (Testing, 24 h later) consists of the 5 min test. A time sampling procedure is employed where animals are observed every 5 seconds for the duration of the test session (60 counts or 5 minutes) and scored for immobility (defined as the failure to struggle), swimming (defined as a circular movement around the tank), or climbing (defined as an upwards escape behavior). Data are expressed as the percent of the testing session (e.g., the number of immobility counts divided by 60). A p-value less than 0.05 indicates statistical significance after typical statistical analyses (e.g., unpaired t-test or ANOVA).
To determine that the prodrug and/or enantiomer has an antidepressant-like effect and to compare it to methylone, rats are treated with each compound 30 min prior to testing. Additional tests are run 24, 72, 168 hours post-dose or longer. Effects on Fear Extinction in a Model of Post-Traumatic Stress Disorder (PTSD)
Racemic methylone (10 mg/kg, IP) has a maximal antidepressant-like effect in the rat forced swim test (FST), reducing immobility by nearly 100% compared to vehicle treated controls. […]

T1 sequence (Q14524 whole entry): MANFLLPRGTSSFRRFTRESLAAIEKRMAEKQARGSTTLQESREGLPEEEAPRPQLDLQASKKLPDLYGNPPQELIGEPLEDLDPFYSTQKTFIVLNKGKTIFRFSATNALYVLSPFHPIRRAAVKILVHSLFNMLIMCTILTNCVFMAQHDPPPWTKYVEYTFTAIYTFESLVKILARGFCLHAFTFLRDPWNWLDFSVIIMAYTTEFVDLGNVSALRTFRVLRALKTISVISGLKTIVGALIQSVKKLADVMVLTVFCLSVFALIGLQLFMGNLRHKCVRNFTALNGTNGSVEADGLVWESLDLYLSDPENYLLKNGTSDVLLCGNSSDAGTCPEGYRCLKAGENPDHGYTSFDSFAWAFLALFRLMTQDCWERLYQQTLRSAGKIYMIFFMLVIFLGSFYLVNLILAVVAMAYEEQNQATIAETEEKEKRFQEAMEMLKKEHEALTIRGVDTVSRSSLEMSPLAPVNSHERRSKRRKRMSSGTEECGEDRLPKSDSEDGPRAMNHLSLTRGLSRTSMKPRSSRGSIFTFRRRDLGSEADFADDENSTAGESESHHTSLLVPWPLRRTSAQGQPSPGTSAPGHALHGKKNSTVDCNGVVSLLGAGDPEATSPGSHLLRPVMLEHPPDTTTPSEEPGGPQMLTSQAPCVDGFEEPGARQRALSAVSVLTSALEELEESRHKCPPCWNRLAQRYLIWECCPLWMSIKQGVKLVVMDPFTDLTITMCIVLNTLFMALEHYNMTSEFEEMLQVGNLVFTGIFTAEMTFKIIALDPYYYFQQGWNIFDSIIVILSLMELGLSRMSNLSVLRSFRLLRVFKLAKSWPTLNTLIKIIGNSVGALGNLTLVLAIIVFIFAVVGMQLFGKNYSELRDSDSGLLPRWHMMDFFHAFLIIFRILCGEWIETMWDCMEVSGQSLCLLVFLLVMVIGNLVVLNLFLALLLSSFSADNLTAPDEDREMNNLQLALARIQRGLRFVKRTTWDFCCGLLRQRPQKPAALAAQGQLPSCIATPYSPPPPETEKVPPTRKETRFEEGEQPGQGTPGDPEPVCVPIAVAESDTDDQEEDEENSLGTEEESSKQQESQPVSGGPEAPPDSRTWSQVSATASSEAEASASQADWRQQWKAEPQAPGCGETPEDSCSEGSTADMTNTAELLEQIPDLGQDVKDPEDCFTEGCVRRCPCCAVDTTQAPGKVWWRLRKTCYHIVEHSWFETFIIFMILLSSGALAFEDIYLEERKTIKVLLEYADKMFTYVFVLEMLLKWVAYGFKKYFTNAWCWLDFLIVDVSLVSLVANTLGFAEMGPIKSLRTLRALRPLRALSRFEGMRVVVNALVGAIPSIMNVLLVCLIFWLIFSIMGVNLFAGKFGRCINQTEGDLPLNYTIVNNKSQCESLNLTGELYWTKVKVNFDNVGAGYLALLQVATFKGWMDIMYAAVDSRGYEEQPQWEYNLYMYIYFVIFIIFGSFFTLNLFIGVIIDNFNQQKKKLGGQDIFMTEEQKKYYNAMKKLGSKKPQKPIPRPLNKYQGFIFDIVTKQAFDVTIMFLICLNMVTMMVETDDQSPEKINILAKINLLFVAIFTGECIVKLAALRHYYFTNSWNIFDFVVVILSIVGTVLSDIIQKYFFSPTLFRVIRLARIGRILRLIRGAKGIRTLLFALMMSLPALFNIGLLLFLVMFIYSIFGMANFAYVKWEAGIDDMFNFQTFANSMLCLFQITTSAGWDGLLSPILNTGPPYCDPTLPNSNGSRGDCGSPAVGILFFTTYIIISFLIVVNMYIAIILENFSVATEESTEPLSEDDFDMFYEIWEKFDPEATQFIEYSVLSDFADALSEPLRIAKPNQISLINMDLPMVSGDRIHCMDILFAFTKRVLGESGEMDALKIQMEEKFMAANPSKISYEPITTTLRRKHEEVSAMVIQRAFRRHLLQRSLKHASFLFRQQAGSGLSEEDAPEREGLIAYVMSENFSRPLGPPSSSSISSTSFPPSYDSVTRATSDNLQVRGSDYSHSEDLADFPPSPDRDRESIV
T4 sequence (P51787 whole entry): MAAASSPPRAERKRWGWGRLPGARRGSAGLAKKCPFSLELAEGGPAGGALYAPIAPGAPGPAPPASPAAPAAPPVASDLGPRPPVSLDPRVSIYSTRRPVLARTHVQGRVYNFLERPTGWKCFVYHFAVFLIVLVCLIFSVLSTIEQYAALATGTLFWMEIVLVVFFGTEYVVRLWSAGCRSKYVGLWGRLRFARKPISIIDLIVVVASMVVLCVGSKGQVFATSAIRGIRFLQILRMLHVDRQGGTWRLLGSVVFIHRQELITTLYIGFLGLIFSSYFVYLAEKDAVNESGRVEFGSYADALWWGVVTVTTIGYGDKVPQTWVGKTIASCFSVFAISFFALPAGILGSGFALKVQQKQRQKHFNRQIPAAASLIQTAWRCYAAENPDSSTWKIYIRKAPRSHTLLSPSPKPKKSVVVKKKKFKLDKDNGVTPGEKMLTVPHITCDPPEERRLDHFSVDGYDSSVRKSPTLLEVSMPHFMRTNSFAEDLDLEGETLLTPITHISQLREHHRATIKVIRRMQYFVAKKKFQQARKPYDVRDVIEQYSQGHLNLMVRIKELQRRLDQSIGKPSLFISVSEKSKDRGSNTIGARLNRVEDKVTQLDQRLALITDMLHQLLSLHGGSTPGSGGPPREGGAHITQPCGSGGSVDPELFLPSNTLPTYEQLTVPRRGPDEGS
T3 sequence (Q12809 whole entry): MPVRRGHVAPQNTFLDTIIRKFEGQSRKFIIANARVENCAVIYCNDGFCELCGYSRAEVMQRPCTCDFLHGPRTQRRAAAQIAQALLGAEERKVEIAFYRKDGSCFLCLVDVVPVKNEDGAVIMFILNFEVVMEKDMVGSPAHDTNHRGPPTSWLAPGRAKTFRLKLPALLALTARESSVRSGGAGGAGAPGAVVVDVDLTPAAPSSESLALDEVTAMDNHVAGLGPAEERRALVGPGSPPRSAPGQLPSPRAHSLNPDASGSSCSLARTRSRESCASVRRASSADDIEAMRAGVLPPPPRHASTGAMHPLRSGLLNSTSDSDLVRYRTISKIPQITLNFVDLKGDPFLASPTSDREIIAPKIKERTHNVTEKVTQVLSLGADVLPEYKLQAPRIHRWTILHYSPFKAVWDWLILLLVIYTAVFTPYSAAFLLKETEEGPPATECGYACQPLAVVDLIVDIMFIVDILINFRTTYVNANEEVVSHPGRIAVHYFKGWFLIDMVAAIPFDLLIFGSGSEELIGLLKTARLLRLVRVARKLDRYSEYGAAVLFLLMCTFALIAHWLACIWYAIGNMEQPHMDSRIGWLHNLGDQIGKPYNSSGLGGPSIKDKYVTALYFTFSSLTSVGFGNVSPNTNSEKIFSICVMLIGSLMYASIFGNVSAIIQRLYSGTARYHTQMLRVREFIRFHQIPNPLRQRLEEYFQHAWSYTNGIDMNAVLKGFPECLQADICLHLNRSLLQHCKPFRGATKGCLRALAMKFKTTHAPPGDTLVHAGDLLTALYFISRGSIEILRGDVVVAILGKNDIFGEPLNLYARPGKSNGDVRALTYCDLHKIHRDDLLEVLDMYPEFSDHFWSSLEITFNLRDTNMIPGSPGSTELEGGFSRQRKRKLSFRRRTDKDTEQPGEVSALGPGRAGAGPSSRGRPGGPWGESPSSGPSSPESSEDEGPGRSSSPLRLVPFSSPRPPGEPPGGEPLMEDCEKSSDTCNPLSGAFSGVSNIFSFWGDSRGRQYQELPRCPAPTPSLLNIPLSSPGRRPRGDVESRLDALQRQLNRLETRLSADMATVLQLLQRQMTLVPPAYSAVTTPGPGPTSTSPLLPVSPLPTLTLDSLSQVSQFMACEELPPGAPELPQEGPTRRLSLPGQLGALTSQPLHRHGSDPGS

Structure (SMILES)	Estimated IC50 [1]	Estimated IC50 [2]	Estimated IC50 [3]	Estimated IC50 [4]	antidepressant-like effect (immobility) compared to vehicle [5]	antidepressant-like effect (immobility) compared to vehicle ([5]; 10 mg/kg)
CN[C@H](C)C(=O)c1ccc2c(c1)OCO2 [(R)-methylone]	N/C (N/C indicates observed mean inhibition was <25%)	N/C (N/C indicates observed mean inhibition was <25%)	N/C (N/C indicates observed mean inhibition was <25%)	N/C (N/C indicates observed mean inhibition was <25%)	no effect	–
CN[C@@H](C)C(=O)c1ccc2c(c1)OCO2 [(S)-methylone]	N/C (N/C indicates observed mean inhibition was <25%)	N/C (N/C indicates observed mean inhibition was <25%)	N/C (N/C indicates observed mean inhibition was <25%)	N/C (N/C indicates observed mean inhibition was <25%)	–	Mimics the Rapid and Robust Antidepressant-like Activity of Racemic Methylone; also recorded: mimicked the rapid and robust antidepressant-like effect of racemic methylone
CNC(C)C(=O)c1ccc2c(c1)OCO2 (stereo not shown) [Methylone HCl, methylone HCl]	N/C (N/C indicates observed mean inhibition was <25%)	N/C (N/C indicates observed mean inhibition was <25%)	–	N/C (N/C indicates observed mean inhibition was <25%)	–	–
